In patent publication US11926645B2, “Compounds and methods for treatment of viral infections” (priority 2020, dated 2024) one finds EC50 and CC50 data, which are given here for 20 molecules.

Read-outs that look alike come from different tables or passages of the source.

Common to all, as to format: cell-based
Series [1] has as its system RSV-Fluc (Respiratory Syncytial virus strain A2 containing the firefly luciferase reporter). The series is described as follows: microbe, parasite or virus in culture. To be noted: human respiratory syncytial virus, 72 h, NHBE cells, three days.
For another series, the system named is RSV strain A2. The series can be described thus: RSV antiviral assay (Hep2), EC50-Hep2/B1-384. Conditions: human respiratory syncytial virus, HEp-2, 96 h; Hep2 cells, 4 days, Cell-Titer Glo.
Another series relates to SARS-CoV-2-Nluc viruses. The series is described as follows: microbe, parasite or virus in culture.
The nature of a further series: in vitro. To be noted: human. On the procedure: The cytotoxicity of compounds was determined in A549-hACE2 cells in the following manner. Compounds (200 nL) were spotted onto 384-well Grenier plates prior to seeding 5000 A549-hACE2 cells/well in a volume of 40 μL culture medium. The plates were incubated at 37° C. for 48 hours with 5% CO2. On day 2, 40 μL of CellTiter-Glo (Promega) was added and mixed 5 times.

Where [2] appears, read: Severe acute respiratory syndrome coronavirus 2, 48 h; read-out: SARS-CoV2 EC50.

The term EC50 denotes the concentration that produces a half-maximal response. In general, CC50 refers to the concentration giving 50% cytotoxicity. For `CCC(CC)C(=O)OC[C@H]1O[C@@](C#N)(c2ccc3c(N)ncnn23)[C@H](O)[C@@H]1O` [Compound 19, ((2R,3S,4R,5R)-5-(4-aminopyrrolo[2,1-f][1,2,4]triazin-7-yl)-5-cyano-3,4-dihydroxytetrahydrofuran-2-yl)methyl 2-ethylbutanoate], the EC50 in series [1] was determined as 0.261 µM; with RSV strain A2, 0.238 µM; in the series with SARS-CoV-2-Nluc viruses (setting [2]), 1.45 µM. This molecule registered a CC50 at 48 h in “in vitro” of more than 10 µM.
Regarding `N#C[C@@]1(c2ccc3c(N)ncnn23)O[C@H](CO)[C@H]2OC(c3ccccc3)O[C@H]21` (stereo partly drawn) [Compound 4, (3aR,4R,6R,6aR)-4-(4-aminopyrrolo[2,1-f][1,2,4]triazin-7-yl)-6-(hydroxymethyl)-2-phenyltetrahydrofuro[3,4-d][1,3]dioxole-4-carbonitrile], the EC50 with RSV strain A2 is 26.3 µM; in the series with SARS-CoV-2-Nluc viruses (setting [2]) it was more than 10 µM. The CC50 at 48 h in the series “in vitro” is more than 100 µM.
With `CC(C)(C)CC(=O)OC[C@H]1O[C@@](C#N)(c2ccc3c(N)ncnn23)[C@H](O)[C@@H]1O` [Compound 21, ((2R,3S,4R,5R)-5-(4-aminopyrrolo[2,1-f][1,2,4]triazin-7-yl)-5-cyano-3,4-dihydroxytetrahydrofuran-2-yl)methyl 3,3-dimethylbutanoate], the half-maximal effective concentration (EC50) in series [1] came out at 1.85 µM; with RSV strain A2, 2.28 µM; in the series with SARS-CoV-2-Nluc viruses (setting [2]) it was 11.4 µM. This molecule also gave a CC50 at 48 h in “in vitro” of more than 10 µM.
Turning to `Cc1ccc(C(=O)OC[C@H]2O[C@@](C#N)(c3ccc4c(N)ncnn34)[C@H](O)[C@@H]2O)cc1` [Compound 23, ((2R,3S,4R,5R)-5-(4-aminopyrrolo[2,1-f][1,2,4]triazin-7-yl)-5-cyano-3,4-dihydroxytetrahydrofuran-2-yl)methyl 4-methylbenzoate], the EC50 was determined as 0.249 µM in series [1], 0.197 µM in the series on RSV strain A2 and 1.09 µM in the series on SARS-CoV-2-Nluc viruses (setting [2]). The CC50 at 48 h in the series “in vitro” is more than 10 µM.
The corresponding values for `CC(=O)OC[C@H]1O[C@@](C#N)(c2ccc3c(N)ncnn23)[C@H](OC(C)=O)[C@@H]1OC(C)=O` [Compound 2, (2R,3R,4R,5R)-5-(acetoxymethyl)-2-(4-aminopyrrolo[2,1-f][1,2,4]triazin-7-yl)-2-cyanotetrahydrofuran-3,4-diyl diacetate] are 0.287 µM, 0.537 µM, 1.9 µM and more than 50 µM.
For `CCC(=O)OC[C@H]1O[C@@](C#N)(c2ccc3c(N)ncnn23)[C@H](OC(=O)CC)[C@@H]1OC(=O)CC` [Compound 3, (2R,3R,4R,5R)-2-(4-aminopyrrolo[2,1-f][1,2,4]triazin-7-yl)-2-cyano-5-((propionyloxy)methyl)tetrahydrofuran-3,4-diyl dipropionate], the results for the EC50 (in series [1]; in the series with RSV strain A2; with SARS-CoV-2-Nluc viruses (setting [2])) were 0.831 µM, 0.425 µM and 3.1 µM, respectively. Besides, the half-maximal cytotoxic concentration (CC50) at 48 h in “in vitro” is more than 100 µM.
In the case of `CC(C)[C@H](N)C(=O)OC[C@H]1O[C@@](C#N)(c2ccc3c(N)ncnn23)[C@@H]2OC(c3ccccc3)O[C@@H]21` (stereo partly drawn) [Compound 6, ((3aR,4R,6R,6aR)-6-(4-aminopyrrolo[2,1-f][1,2,4]triazin-7-yl)-6-cyano-2-phenyltetrahydrofuro[3,4-d][1,3]dioxol-4-yl)methyl L-valinate], the EC50 in the series with RSV strain A2 was 23.6 µM; with SARS-CoV-2-Nluc viruses (setting [2]) it was more than 10 µM. This molecule also registered a 50% cytotoxic concentration (CC50) at 48 h in the series “in vitro” of more than 71.2 µM.
For `CC(C)C(=O)OC[C@H]1O[C@@](C#N)(c2ccc3c(N)ncnn23)[C@@H]2OC(c3ccccc3)O[C@@H]21` (stereo partly drawn) [Compound 5, ((3aR,4R,6R,6aR)-6-(4-aminopyrrolo[2,1-f][1,2,4]triazin-7-yl)-6-cyano-2-phenyltetrahydrofuro[3,4-d][1,3]dioxol-4-yl)methyl isobutyrate] the same measures were 13.1 µM, more than 10 µM and more than 100 µM.
With `CC(C)C(=O)O[C@H]1[C@@H](OC(=O)C(C)C)[C@](C#N)(c2ccc3c(N)ncnn23)O[C@@H]1COC(=O)C(C)(C)N` [Compound 11, (2R,3R,4R,5R)-5-(((2-amino-2-methylpropanoyl)oxy)methyl)-2-(4-aminopyrrolo[2,1-f][1,2,4]triazin-7-yl)-2-cyanotetrahydrofuran-3,4-diyl bis(2-methylpropanoate)], the concentration giving a half-maximal response (EC50) was 0.301 µM in series [1], 0.387 µM in the series on RSV strain A2 and 2.6 µM with SARS-CoV-2-Nluc viruses (setting [2]). The molecule further showed a CC50 at 48 h in the series “in vitro” of more than 100 µM.
For `N#C[C@@]1(c2ccc3c(N)ncnn23)O[C@H](COC(=O)C2CC3CCCC3C2)[C@@H](O)[C@H]1O` (stereo partly drawn) [Compound 24, ((2R,3S,4R,5R)-5-(4-aminopyrrolo[2,1-f][1,2,4]triazin-7-yl)-5-cyano-3,4-dihydroxytetrahydrofuran-2-yl)methyl octahydropentalene-2-carboxylate] the same measures were 0.801 µM, 0.185 µM, 0.8 µM and more than 10 µM.
For `CC(=O)OC[C@H]1O[C@@](C#N)(c2ccc3c(N)ncnn23)[C@H](O)[C@@H]1O` [Compound 30, ((2R,3S,4R,5R)-5-(4-aminopyrrolo[2,1-f][1,2,4]triazin-7-yl)-5-cyano-3,4-dihydroxytetrahydrofuran-2-yl)methyl acetate] the same measures were 2.37 µM, 0.643 µM, 2.32 µM and more than 50 µM.
For `CC(C)C(=O)O[C@H]1[C@@H](OC(=O)C(C)C)[C@](C#N)(c2ccc3c(N)ncnn23)O[C@@H]1COC(=O)[C@@H](N)C(C)C` [Compound 12, (2R,3R,4R,5R)-5-(((L-valyl)oxy)methyl)-2-(4-aminopyrrolo[2,1-f][1,2,4]triazin-7-yl)-2-cyanotetrahydrofuran-3,4-diylbis(2-methylpropanoate)] the same measures were 0.169 µM, 0.42 µM, 3.3 µM and more than 50 µM.
On to `CC(C)CC(=O)OC[C@H]1O[C@@](C#N)(c2ccc3c(N)ncnn23)[C@H](O)[C@@H]1O` [Compound 16, ((2R,3S,4R,5R)-5-(4-aminopyrrolo[2,1-f][1,2,4]triazin-7-yl)-5-cyano-3,4-dihydroxytetrahydrofuran-2-yl)methyl 3-methylbutanoate], for which the EC50 in series [1] was 0.575 µM; with RSV strain A2, 0.216 µM; in the series with SARS-CoV-2-Nluc viruses (Severe acute respiratory syndrome coronavirus 2, 48 h, read-out: SARS-CoV2 EC50) it was 1.22 µM. The molecule further registered a cytotoxic concentration (CC50) at 48 h in “in vitro” of more than 10 µM.
Regarding `CC(C)(N)C(=O)OC[C@H]1O[C@@](C#N)(c2ccc3c(N)ncnn23)[C@H](O)[C@@H]1O` [Compound 7, ((2R,3S,4R,5R)-5-(4-aminopyrrolo[2,1-f][1,2,4]triazin-7-yl)-5-cyano-3,4-dihydroxytetrahydrofuran-2-yl)methyl 2-amino-2-methylpropanoate], the concentration for a half-maximal effect (EC50) was found to be 0.859 µM with RSV strain A2 and 3.1 µM in the series with SARS-CoV-2-Nluc viruses (setting [2]). The same molecule registered a 50% cytotoxic concentration (CC50) at 48 h in “in vitro” of more than 50 µM.
As for `N#C[C@@]1(c2ccc3c(N)ncnn23)O[C@H](COC(=O)[C@@H](N)Cc2ccccc2)[C@@H](O)[C@H]1O` [Compound 10, ((2R,3S,4R,5R)-5-(4-aminopyrrolo[2,1-f][1,2,4]triazin-7-yl)-5-cyano-3,4-dihydroxytetrahydrofuran-2-yl)methyl L-phenylalaninate], the EC50 was determined as 1.2 µM in the series with RSV strain A2 and 2.2 µM in the series with SARS-CoV-2-Nluc viruses (setting [2]). The molecule also gave a CC50 at 48 h in “in vitro” of more than 100 µM.
For `N#C[C@@]1(c2ccc3c(N)ncnn23)O[C@H](COC(=O)C[C@@H](N)Cc2ccccc2)[C@@H](O)[C@H]1O` [Compound 14, ((2R,3S,4R,5R)-5-(4-aminopyrrolo[2,1-f][1,2,4]triazin-7-yl)-5-cyano-3,4-dihydroxytetrahydrofuran-2-yl)methyl (S)-3-amino-4-phenylbutanoate] the same measures were 0.825 µM, 2.7 µM and more than 50 µM.
`CCCC(=O)OC[C@H]1O[C@@](C#N)(c2ccc3c(N)ncnn23)[C@H](O)[C@@H]1O` [Compound 25, ((2R,3S,4R,5R)-5-(4-aminopyrrolo[2,1-f][1,2,4]triazin-7-yl)-5-cyano-3,4-dihydroxytetrahydrofuran-2-yl)methyl butyrate]: the EC50 was 0.601 µM in series [1], 0.225 µM with RSV strain A2 and 1.22 µM in the series with SARS-CoV-2-Nluc viruses (setting [2]). Moreover, the 50% cytotoxic concentration (CC50) at 48 h in “in vitro” is more than 10 µM.
`N#C[C@@]1(c2ccc3c(N)ncnn23)O[C@H](COC(=O)Cc2ccccc2)[C@@H](O)[C@H]1O` [Compound 22, ((2R,3S,4R,5R)-5-(4-aminopyrrolo[2,1-f][1,2,4]triazin-7-yl)-5-cyano-3,4-dihydroxytetrahydrofuran-2-yl)methyl 2-phenylacetate]: the EC50 was 0.79 µM in series [1], 0.218 µM in the series with RSV strain A2 and 0.85 µM in the series with SARS-CoV-2-Nluc viruses (setting [2]). The CC50 in “in vitro” (48 hours, CellTiter-Glo, read-out: A549-hACE2 CC50) is more than 10 µM.
Consider `N#C[C@@]1(c2ccc3c(N)ncnn23)O[C@H](CO)[C@H]2OC(=O)O[C@H]21` [Compound 13, (3aR,4R,6R,6aR)-4-(4-aminopyrrolo[2,1-f][1,2,4]triazin-7-yl)-6-(hydroxymethyl)-2-oxotetrahydrofuro[3,4-d][1,3]dioxole-4-carbonitrile], for which the concentration for a half-maximal effect (EC50) in the series on RSV strain A2 turned out to be 0.506 µM; in the series with SARS-CoV-2-Nluc viruses (setting [2]) it was 1.3 µM. The 50% cytotoxic concentration (CC50) at 48 h in “in vitro” is more than 50 µM.
For `CC(C)[C@@H](N)C(=O)OC[C@H]1O[C@@](C#N)(c2ccc3c(N)ncnn23)[C@H](O)[C@@H]1O` [Compound 9, ((2R,3S,4R,5R)-5-(4-aminopyrrolo[2,1-f][1,2,4]triazin-7-yl)-5-cyano-3,4-dihydroxytetrahydrofuran-2-yl)methyl D-valinate] the same measures were 0.798 µM, 2.4 µM and more than 50 µM.
